Assay results published in publication PMC10202323, “4′-Deoxypyridoxine disrupts vitamin B6 homeostasis in Escherichia coli K12 through combined inhibition of cumulative B6 uptake and PLP-dependent enzyme activity” (Microbiology, 2023).

Columns and labels:
Type in all cases: biochemical
PdxH = biological target: T1, PdxH (Escherichia coli, UniProt P0AFI7); assay: spectrophotometric PLP formation at […] nm; details: read-out: apparent inhibition constant
T1 construct: recombinant, purified to homogeneity as previously reported
T1 sequence (P0AFI7 2-218): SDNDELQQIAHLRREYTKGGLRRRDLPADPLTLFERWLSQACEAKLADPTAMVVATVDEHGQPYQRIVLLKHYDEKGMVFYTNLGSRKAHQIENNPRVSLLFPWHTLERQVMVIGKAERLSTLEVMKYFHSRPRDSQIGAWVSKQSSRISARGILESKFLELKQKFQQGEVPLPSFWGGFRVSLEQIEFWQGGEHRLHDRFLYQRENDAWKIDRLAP

GlyA = biological target: T2, GlyA (Escherichia coli, UniProt P0A825); assay: spectrophotometric coupled SHMT assay; details: read-out: apparent inhibition constant
T2 construct: recombinant, purified to homogeneity as previously reported; apoenzyme reconstituted with PLP
T2 sequence (P0A825 1-417): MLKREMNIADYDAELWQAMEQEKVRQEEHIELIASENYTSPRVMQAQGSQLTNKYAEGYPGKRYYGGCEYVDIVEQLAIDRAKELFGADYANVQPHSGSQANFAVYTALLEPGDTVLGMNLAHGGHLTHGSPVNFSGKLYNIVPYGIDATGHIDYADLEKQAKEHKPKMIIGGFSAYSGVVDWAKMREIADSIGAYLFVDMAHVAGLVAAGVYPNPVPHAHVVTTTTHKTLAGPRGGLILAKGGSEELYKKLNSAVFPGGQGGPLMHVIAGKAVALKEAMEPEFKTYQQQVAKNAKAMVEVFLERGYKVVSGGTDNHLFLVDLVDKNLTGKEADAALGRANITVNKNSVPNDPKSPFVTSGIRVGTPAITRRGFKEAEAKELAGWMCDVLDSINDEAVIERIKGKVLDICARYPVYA

PdxK = biological target: T3, PdxK (Escherichia coli, UniProt P40191); assay: spectrophotometric PLP formation at […] nm; details: read-out: inhibition constant
T3 construct: recombinant, purified to homogeneity as previously reported
T3 sequence (P40191 whole entry): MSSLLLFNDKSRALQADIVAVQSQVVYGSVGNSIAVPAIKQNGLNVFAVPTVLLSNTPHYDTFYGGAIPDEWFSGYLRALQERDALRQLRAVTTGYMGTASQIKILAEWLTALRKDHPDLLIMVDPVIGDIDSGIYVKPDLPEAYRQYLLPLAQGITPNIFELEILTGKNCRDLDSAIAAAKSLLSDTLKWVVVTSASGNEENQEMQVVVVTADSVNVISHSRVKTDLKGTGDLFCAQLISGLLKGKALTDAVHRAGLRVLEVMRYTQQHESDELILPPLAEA

| SMILES | Ki (PdxH) [µM] | Ki (GlyA) [µM] | Ki (PdxK) [µM] |
| --- | --- | --- | --- |
| Cc1ncc(COP(=O)(O)O)c(C)c1O [4dPNP] | 530 ± 30 | 50 ± 30 | – |
| Cc1ncc(CO)c(C)c1O [4dPN] | – | – | 0.5 ± 0.6 |
